One data set concerns P. rettgeri CAP. The data set is described as follows: Broth microdilution MIC, reference strains. It is filed as cell-based. The settings on record: Providencia rettgeri; P. rettgeri (CAP in Table 1); read-out: MIC (growth inhibition, microdilution method). The source says: (§1) All clinical isolates tested were from The North American Urinary Tract Infection Collaborative Alliance (NAUTICA) which is a UTI surveillance study involving 40 medical centres (30 from the US and 10 from Canada). Each centre submitted up to 50 consecutive outpatient midstream urine isolates. All isolates were deemed significant urinary tract pathogens by individual laboratory criteria and identified to the species level by each laboratory's existing protocol. Isolates were transported to the coordinating laboratory (Health Sciences Centre, Winnipeg, Canada) on charcoal swabs. Only one isolate per patient was accepted. Upon receipt, isolates were cultured by the coordinating laboratory, stocked in skim milk, and stored at −80° C. awaiting reference antibiotic susceptibility testing. Elementary demographic information was also compiled for each isolate. Isolates were selected randomly from the above pool to represent 18 different species of Enterobacteriaceae and non-Enterobacteriaceae. An average of 5 strains of each species were tested for a total of 93 organisms. In addition, 23 reference (ATCC) [both gram negative and gram positive] strains were tested.
(§2) Susceptibilities to the compounds were determined using the National Committee for Clinical Laboratory Standards (NCCLS) M7-A6 broth microdilution method. […] DMSO controls were incorporated into the panel to mimic the quantity of DMSO used in dissolving some of the compounds at the higher concentrations. Each final panel well volume was 100 μl with a bacterial inoculum of 5×10^5 colony forming units (CFU)/ml. Panels were read following 16 to 20 hours of incubation at 35° C. in ambient air. The minimum inhibitory concentration (MIC) was defined as the lowest concentration of antimicrobial inhibiting visible growth. Quality control (QC) was performed using four ATCC QC organisms that were run with every batch set up to insure reproducibility.
(Dilution methods test growth across graded concentrations, often in twofold steps.)

The subject of data set [1] is A. baumanii clinical isolates. The data set is described as follows: Broth microdilution MIC, clinical isolate strains (NAUTICA). It is filed as cell-based. Conditions: Table 4B; each table row is one clinical isolate; unit assumed.
From the text: as §1, §2

For data set [2], the system named is B. cepacia clinical isolates. The description is as above. Conditions: Table 4B; each table row is one clinical isolate; unit assumed. It counts as cell-based.
From the text: as §1, §2

Data set [3] has as its system C. amalonaticus clinical isolates. The data set is described as above. Conditions: Table 4B; each table row is one clinical isolate; unit assumed. It counts as cell-based.
From the text: as §1, §2

Data set [4] concerns C. freundii clinical isolates. Described as above. It is filed as cell-based. The settings on record: Table 4B; each table row is one clinical isolate; in µg/mL (unit assumed).
From the text: as §1, §2

For data set [5], the system named is C. koseril clinical isolates. The description is as above. It is filed as cell-based. Conditions: Table 4B; each table row is one clinical isolate; unit assumed.
From the text: as §1, §2

Data set [6] concerns E. aerogenes clinical isolates. The description is as above. It is filed as cell-based. Conditions: Table 4B; each table row is one clinical isolate; unit assumed.
From the text: as §1, §2

Data set [7] has as its system E. cloacae clinical isolates. The data set is described as above. It is filed as cell-based. The settings on record: Table 4B; each table row is one clinical isolate; unit assumed.
From the text: as §1, §2

Data set [8] deals with E. coli clinical isolates. The data set is described as above. It is filed as cell-based. Conditions: Table 4B; each table row is one clinical isolate; unit assumed.
From the text: as §1, §2

The subject of data set [9] is K. oxytoca clinical isolates. Described as above. The settings on record: Table 4B; each table row is one clinical isolate; unit assumed. It is filed as cell-based.
From the text: as §1, §2

The test system of data set [10] is K. pneumoniae clinical isolates. Described as above. It is filed as cell-based. Conditions: Table 4B; each table row is one clinical isolate; unit assumed.
From the text: as §1, §2

Data set [11] has as its system M. morganii clinical isolates. The description is as above. It is filed as cell-based. The settings on record: Table 4B; each table row is one clinical isolate; unit assumed.
From the text: as §1, §2

The test system of data set [12] is P. mirabilis clinical isolates. Described as above. It is filed as cell-based. The settings on record: Table 4B; each table row is one clinical isolate; unit assumed.
From the text: as §1, §2

The subject of data set [13] is P. retgerri clinical isolates. The data set is described as above. It is filed as cell-based. Conditions: Table 4B; each table row is one clinical isolate; unit assumed.
From the text: as §1, §2

Data set [14] relates to P. stuartii clinical isolates. The data set is described as above. It is filed as cell-based. Conditions: Table 4B; each table row is one clinical isolate; unit assumed.
From the text: as §1, §2

In data set [15] the test system is P. vulgaris clinical isolates. Described as above. It counts as cell-based. The settings on record: Table 4B; each table row is one clinical isolate; unit assumed.
From the text: as §1, §2

The subject of data set [16] is Ps. aeruginosa clinical isolates. Described as above. Conditions: Table 4B; each table row is one clinical isolate; unit assumed. It is filed as cell-based.
From the text: as §1, §2

Data set [17] deals with S. liquifaciens clinical isolates. Described as above. It counts as cell-based. Conditions: Table 4B; each table row is one clinical isolate; unit assumed.
From the text: as §1, §2

Data set [18] relates to S. maltophilia clinical isolates. Described as above. It is filed as cell-based. Conditions: Table 4B; each table row is one clinical isolate; unit assumed.
From the text: as §1, §2

Data set [19] concerns S. marcescens clinical isolates. The data set is described as above. It counts as cell-based. Conditions: Table 4B; each table row is one clinical isolate; unit assumed.
From the text: as §1, §2

A value given as a limit tells only on which side of the number the result lay.

The values that follow come from US8835476B2, “Synthesis of novel antimicrobials” (priority 2005, dated 2014).

As for `Cn1nnnc1-c1cc(-c2ccc(F)cc2)sc1C(=O)O` [DNM-143, 5-(4-Fluoro-phenyl)-3-(1-methyl-1H-tetrazol-5-yl)-thiophene-2-carboxylic acid], the MIC in the data set on P. rettgeri CAP was greater than 8 µg/mL. The MIC, A. BAUMANII in data set [1] was greater than 8 µg/mL. Moreover, the MIC, B. CEPACIA in data set [2] was greater than 8 µg/mL. In addition, the MIC, C. AMALONATICUS in data set [3] is greater than 8 µg/mL. Moreover, the “MIC, C. FREUNDII” value in data set [4] is greater than 8. Moreover, the MIC, C. KOSERI in data set [5] was greater than 8 µg/mL. In data set [6], this molecule registered an MIC, E. AEROGENES greater than 8 µg/mL. The molecule further came in with an MIC, E. CLOACAE in [7] greater than 8 µg/mL. Also, the MIC, E. COLI in data set [8] was greater than 8 µg/mL. Also, in [9], the MIC, K. OXYTOCA is greater than 8 µg/mL. Further, the MIC, K. PNEUMONIAE in data set [10] is greater than 8 µg/mL. Besides, the MIC, M. MORGANII in [11] is greater than 8 µg/mL. The same molecule showed an MIC, P. MIRABILIS in [12] greater than 8 µg/mL. The MIC, P. RETTGERI in data set [13] is greater than 8 µg/mL. For the same molecule, the MIC, P. STUARTII in data set [14] is greater than 8 µg/mL. In [15], this molecule displayed an MIC, P. VULGARIS greater than 8 µg/mL. The molecule further returned an MIC, PS. AER in data set [16] greater than 8 µg/mL. In data set [17], this molecule had an MIC, S. LIQUEFACIENS greater than 8 µg/mL. Moreover, the MIC, S. MALTOPHILIA in data set [18] was greater than 8 µg/mL. In [19], this molecule showed an MIC, S. MARCESCENS greater than 8 µg/mL.
The molecule `CCOC(=O)c1cc(-c2nnn(C)n2)c(-c2ccc(F)cc2)s1` [DNM-125, ethyl 5-(4-fluorophenyl)-4-(2-methyl-2H-tetrazol-5-yl)thiophene-2-carboxylate] registered a melting point of 108 to 110 °C. Further, the MIC in the data set with P. rettgeri CAP is greater than 16 µg/mL. In data set [1], this molecule came in with an MIC, A. BAUMANII greater than 16 µg/mL. For the same molecule, the MIC, B. CEPACIA in data set [2] was greater than 16 µg/mL. For the same molecule, the MIC, C. AMALONATICUS in data set [3] is greater than 16 µg/mL. The “MIC, C. FREUNDII” value in data set [4] was greater than 16. Also, the MIC, C. KOSERI in [5] is greater than 16 µg/mL. The molecule further returned an MIC, E. AEROGENES in data set [6] greater than 16 µg/mL. Also, the MIC, E. CLOACAE in data set [7] was greater than 16 µg/mL. In addition, the MIC, E. COLI in data set [8] was greater than 16 µg/mL. The molecule also returned an MIC, K. OXYTOCA in data set [9] greater than 16 µg/mL. In data set [10], this molecule displayed an MIC, K. PNEUMONIAE greater than 16 µg/mL. Moreover, in data set [11], the MIC, M. MORGANII is greater than 16 µg/mL. In data set [12], this molecule gave an MIC, P. MIRABILIS greater than 16 µg/mL. Also, the MIC, P. RETTGERI in [13] is greater than 16 µg/mL. In [14], this molecule yielded an MIC, P. STUARTII greater than 16 µg/mL. Further, in data set [15], the MIC, P. VULGARIS was greater than 16 µg/mL. This molecule also yielded an MIC, PS. AER in data set [16] greater than 16 µg/mL. Moreover, the MIC, S. LIQUEFACIENS in data set [17] is greater than 16 µg/mL. In addition, the MIC, S. MALTOPHILIA in data set [18] is greater than 16 µg/mL. Further, the MIC, S. MARCESCENS in data set [19] was greater than 16 µg/mL.
`Cn1nnnc1-c1cc(-c2ccc(F)cc2)sc1-c1ccc(F)cc1` [DNM-133, 5-(2,5-Bis(4-fluorophenyl)thiophen-3-yl)-1-methyl-1H-tetrazole]: in the data set on P. rettgeri CAP, the MIC was greater than 16 µg/mL. Moreover, the MIC, A. BAUMANII in [1] was greater than 16 µg/mL. Moreover, in data set [2], the MIC, B. CEPACIA was greater than 16 µg/mL. The MIC, C. AMALONATICUS in [3] is greater than 16 µg/mL. Besides, in data set [4], the “MIC, C. FREUNDII” value is on record as greater than 16. The molecule also registered an MIC, C. KOSERI in data set [5] greater than 16 µg/mL. The molecule further yielded an MIC, E. AEROGENES in [6] greater than 16 µg/mL. The MIC, E. CLOACAE in data set [7] is greater than 16 µg/mL. Further, the MIC, E. COLI in data set [8] is greater than 16 µg/mL. The molecule further showed an MIC, K. OXYTOCA in data set [9] greater than 16 µg/mL. In data set [10], the MIC, K. PNEUMONIAE was greater than 16 µg/mL. This molecule also had an MIC, M. MORGANII in data set [11] greater than 16 µg/mL. Moreover, in [12], the MIC, P. MIRABILIS was greater than 16 µg/mL. In addition, the MIC, P. RETTGERI in data set [13] is greater than 16 µg/mL. In data set [14], this molecule returned an MIC, P. STUARTII greater than 16 µg/mL. The MIC, P. VULGARIS in data set [15] is greater than 16 µg/mL. The same molecule came in with an MIC, PS. AER in [16] greater than 16 µg/mL. This molecule also returned an MIC, S. LIQUEFACIENS in [17] greater than 16 µg/mL. The molecule further returned an MIC, S. MALTOPHILIA in data set [18] greater than 16 µg/mL. In [19], this molecule registered an MIC, S. MARCESCENS greater than 16 µg/mL.
For `Cn1nnc(-c2cc(-c3ccc(F)cc3)sc2C(=O)O)n1` [DNM-142, 5-(4-Fluoro-phenyl)-3-(2-methyl-2H-tetrazol-5-yl)-thiophene-2-carboxylic acid], the MIC in the data set with P. rettgeri CAP is greater than 16 µg/mL. This molecule also yielded an MIC, A. BAUMANII in data set [1] greater than 16 µg/mL. In data set [2], the MIC, B. CEPACIA was greater than 16 µg/mL. The same molecule had an MIC, C. AMALONATICUS in data set [3] greater than 16 µg/mL. For the same molecule, the “MIC, C. FREUNDII” value in data set [4] was greater than 16. In data set [5], this molecule had an MIC, C. KOSERI greater than 16 µg/mL. The molecule also registered an MIC, E. AEROGENES in data set [6] greater than 16 µg/mL. This molecule also returned an MIC, E. CLOACAE in [7] greater than 16 µg/mL. In data set [8], this molecule yielded an MIC, E. COLI greater than 16 µg/mL. In data set [9], the MIC, K. OXYTOCA was greater than 16 µg/mL. In data set [10], this molecule showed an MIC, K. PNEUMONIAE greater than 16 µg/mL. This molecule displayed an MIC, M. MORGANII in data set [11] greater than 16 µg/mL. In data set [12], this molecule gave an MIC, P. MIRABILIS greater than 16 µg/mL. Besides, in data set [13], the MIC, P. RETTGERI is greater than 16 µg/mL. The molecule further had an MIC, P. STUARTII in data set [14] greater than 16 µg/mL. For the same molecule, the MIC, P. VULGARIS in data set [15] is greater than 16 µg/mL. In data set [16], this molecule returned an MIC, PS. AER greater than 16 µg/mL. The same molecule returned an MIC, S. LIQUEFACIENS in data set [17] greater than 16 µg/mL. This molecule showed an MIC, S. MALTOPHILIA in [18] greater than 16 µg/mL. This molecule also displayed an MIC, S. MARCESCENS in data set [19] greater than 16 µg/mL.

Broadly, the MIC is the lowest concentration found to suppress growth. A word on the melting point: it is the temperature, or range, at which the solid turns liquid.
